Measurements published in PubChem BioAssay (NCI).
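At the GI50, growth is halved. Definition used: TGI = concentration required for complete inhibition of growth.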

Experiments:
Assay in all cases: growth of human tumour cells (NCI), 384-well format
BT-549 breast = test system: BT-549 breast
OVCAR-3 ovarian = test system: OVCAR-3 ovarian
SN12C renal = test system: SN12C renal
RPMI-8226 leukemia = test system: RPMI-8226 leukemia
M14 melanoma = test system: M14 melanoma
SK-MEL-5 melanoma = test system: SK-MEL-5 melanoma
MDA-MB-231 breast = test system: MDA-MB-231 breast
RXF 393 renal = test system: RXF 393 renal
U251 glioblastoma = test system: U251 glioblastoma
SF-539 CNS = test system: SF-539 CNS
SF-295 CNS = test system: SF-295 CNS
SK-MEL-28 melanoma = test system: SK-MEL-28 melanoma
HCT-15 colon = test system: HCT-15 colon

**Q.** Which results are given for `COCCOc1cc(F)c2c(Nc3ccc(NC(=O)Cn4cc(C(C)C)nn4)cc3)ncnc2c1`?
**A.** GI50 (BT-549 breast): 38.4 µM; TGI (BT-549 breast): > 100 µM; GI50 (OVCAR-3 ovarian): 50.7 µM; TGI (OVCAR-3 ovarian): > 100 µM; GI50 (SN12C renal): 12.9 µM; TGI (SN12C renal): > 100 µM; GI50 (RPMI-8226 leukemia): 5.06 µM; TGI (RPMI-8226 leukemia): 34.3 µM; GI50 (M14 melanoma): 59 µM; TGI (M14 melanoma): > 100 µM; GI50 (SK-MEL-5 melanoma): 11.2 µM; TGI (SK-MEL-5 melanoma): > 100 µM; GI50 (MDA-MB-231 breast): 30.5 µM; TGI (MDA-MB-231 breast): > 100 µM; GI50 (RXF 393 renal): 39.8 µM; TGI (RXF 393 renal): > 100 µM; GI50 (U251 glioblastoma): 57.9 µM; TGI (U251 glioblastoma): > 100 µM; GI50 (SF-539 CNS): 11.6 µM; TGI (SF-539 CNS): > 100 µM; GI50 (SF-295 CNS): > 100 µM; TGI (SF-295 CNS): > 100 µM; GI50 (SK-MEL-28 melanoma): > 100 µM; TGI (SK-MEL-28 melanoma): > 100 µM; GI50 (HCT-15 colon): 24.9 µM; TGI (HCT-15 colon): > 100 µM
